These results are taken from patent US20240262795A1, “PYRAZINE COMPOUNDS AS INHIBITORS OF FLT3” (Biomea Fusion, Inc., priority 2021, published 2024).

In general, IC50 refers to the concentration that inhibits the measured activity by half.

In experiment [1] the target is T1, Ba/F3 cell lines stably expressing human FLT3-ITD (Homo sapiens, UniProt P36888, cells depend on it, form not given).
T1 sequence (P36888 1-993): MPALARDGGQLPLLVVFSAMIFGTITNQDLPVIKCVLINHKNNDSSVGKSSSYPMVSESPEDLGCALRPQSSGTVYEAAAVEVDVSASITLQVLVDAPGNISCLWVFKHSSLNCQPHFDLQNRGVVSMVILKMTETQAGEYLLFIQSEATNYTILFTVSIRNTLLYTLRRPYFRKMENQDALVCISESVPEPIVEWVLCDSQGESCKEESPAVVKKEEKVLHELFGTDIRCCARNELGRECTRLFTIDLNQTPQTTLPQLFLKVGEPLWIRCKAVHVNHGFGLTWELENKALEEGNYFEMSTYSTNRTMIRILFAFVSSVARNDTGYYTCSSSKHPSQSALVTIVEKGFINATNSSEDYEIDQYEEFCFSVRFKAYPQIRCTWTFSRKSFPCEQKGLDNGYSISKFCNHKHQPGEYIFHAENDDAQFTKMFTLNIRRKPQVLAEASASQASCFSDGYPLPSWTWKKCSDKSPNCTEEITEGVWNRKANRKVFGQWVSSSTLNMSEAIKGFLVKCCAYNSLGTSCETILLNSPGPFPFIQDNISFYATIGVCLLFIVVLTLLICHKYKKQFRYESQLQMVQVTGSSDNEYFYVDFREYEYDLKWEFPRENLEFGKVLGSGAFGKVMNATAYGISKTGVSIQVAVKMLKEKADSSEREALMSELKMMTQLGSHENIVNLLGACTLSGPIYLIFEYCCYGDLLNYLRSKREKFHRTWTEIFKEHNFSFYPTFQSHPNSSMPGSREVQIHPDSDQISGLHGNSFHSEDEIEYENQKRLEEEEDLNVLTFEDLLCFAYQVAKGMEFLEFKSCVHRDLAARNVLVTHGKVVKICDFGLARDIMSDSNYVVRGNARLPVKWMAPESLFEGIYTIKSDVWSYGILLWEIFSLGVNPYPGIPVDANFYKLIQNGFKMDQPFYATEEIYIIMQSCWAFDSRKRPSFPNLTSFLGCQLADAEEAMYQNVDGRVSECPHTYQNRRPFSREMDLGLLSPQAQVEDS
Description: FLT3 mutant assay, cell viability, Ba/F3-FLT3-ITD. The class given is cell-based, mouse. Conditions: IC50 (3 days), CellTiter-Glo; read-out: Ba/F3-FLT3-ITD Relative IC50. On the procedure: Activity of compounds on FLT3 activating mutations were assessed using Ba/F3 cell lines (mouse pro-B cell line) stably expressing human FLT3-ITD, FLT3-ITD-D835Y or FLT3-ITD-F691L. […] The supernatant collected were concentrated with PEG8000 and used to infect Ba/F3 cells at 1-5 MOI in serum-free media with polybrene. Infected Ba/F3 cells were selected in presence of puromycin, and surviving cells verified by sequencing and/or protein detection assay. Constitutive expression of the activating kinase transforms the Ba/F3 cells into IL-3-independent growth allowing them to be cultured in the absence of IL-3. […] For use in compound testing, cells in exponential growth phase were harvested, counted, and resuspended at the required cell density. Cell viability assays were performed in 96-well assay plates and 90 μL of cell suspension seeded per well. Serial dilutions of the test compounds and assay controls and were freshly prepared for the assay. Nine-point 3× serial dilutions were prepared in 100% DMSO (400× stock) and subsequently diluted in cell culture media to obtain 10× stocks. Ten microliters of the 10× stock serial dilutions were added to the appropriate wells (triplicate wells per condition) in the assay plate. […] Assay plates were incubated for 3 days in at 37° C. in a humidified incubator with 5% CO2.
Inhibition rate (IR) of the tested compounds was determined by the following formula: IR (%)=(1−(RLU compound−RLU blank)/(RLU control−RLU blank))*100%. The inhibitions of different dose of compound were calculated in Excel file, and the dose responses were analysed using GraphPad Prism to evaluate related parameters, such as Bottom, Top and IC50. For the IC50 analysis by GraphPad Prism, the equation below was used to fit curve: Y=Bottom+(Top−Bottom)/(1+10^((LogIC50−X)*HillSlope))
(Cellular ATP, detected with luciferase, serves as a proxy for viable cell number.)

Another experiment concerns MOLM-13. Kind of experiment: Proliferation inhibition, CellTiter-Glo, MOLM-13. Conditions: Homo sapiens, 96 h; MOLM-13 cells, IC50 (4 days), CellTiter-Glo; read-out: MOLM-13 IC50. The class given is cell-based, human. Summed up: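 About 10,000 cells per well in RPMI-1640 with 10% FBS. Compounds added 2 h after seeding at eight concentrations in duplicate (0.2% DMSO as 100% proliferation), then incubated ~96 h at 37° C, 5% CO2. ATP measured by CellTiter-Glo luminescence; IC50 from four-parameter logistic fit.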

Some results are limits rather than exact numbers.

With `CCc1nc(C(N)=O)c(Nc2cccc(CCNC(=O)CN(C)C(=O)/C=C/CN3CCC3)c2)nc1OC(C)C` [Compound 603, (E)-3-((3-(2-(2-(4-(azetidin-1-yl)-N-methylbut-2-enamido)acetamido)ethyl)phenyl)amino)-6-ethyl-5-isopropoxypyrazine-2-carboxamide], the GI50 in experiment [1] lay within 1 to 10 nM. Moreover, the IC50 in the experiment with MOLM-13 fell in the range of 1 to 10 nM.

With `CCc1nc(C(N)=O)c(Nc2ccnc(CCNC(=O)[C@H](C)N(C)C(=O)/C=C/CN(C)C)c2)nc1N(C)C(C)C` [Compound 605, (S, E)-3-((2-(2-(2-(4-(dimethylamino)-N-methylbut-2-enamido)propanamido)ethyl)pyridin-4-yl)amino)-6-ethyl-5-(isopropyl (methyl)amino) pyrazine-2-carboxamide], the GI50 in experiment [1] was 1 to 10 nM. Besides, the IC50 in the experiment with MOLM-13 is under 1 nM.
